# Reference: publication PMC6627469 (Journal of Medicinal Chemistry, 2019)
# “Also recorded” adds a separate entry of the source.
# Tests used:
# [1] = test system: Influenza A virus WU95 (containing a H3 protein of a human H3N2 virus); format: binding
# [2] = test system: H3-containg WU95 virus; assay: Hemagglutination inhibition; format: cell-based, Influenza A virus; settings: relative to the potency of 8, corrected for valency
# [3] = test system: IAV WU95; format: cell-based, Influenza A virus
SMILES,rel pot. (BLI) [1],rel pot. per sugar (BLI) [1],IC50 BLI [1],rel pot. per sugar (HAI) [2],"effect on infection, single agent [3]"
CC(=O)N[C@H]1[C@H]([C@H](O)[C@H](O)CO)O[C@@](OC[C@H]2O[C@@H](O[C@H]3[C@H](O)[C@@H](O)[C@H](OCc4cn([C@@H]5O[C@H](CO)[C@@H](n6cc(-c7ccc(-c8cn([C@H]9[C@H](O)[C@@H](O)[C@H](n%10cc(CO[C@@H]%11O[C@H](CO)[C@@H](O[C@@H]%12O[C@H](CO[C@]%13(C(=O)O)C[C@H](O)[C@@H](NC(C)=O)[C@H]([C@H](O)[C@H](O)CO)O%13)[C@H](O)[C@H](O)[C@H]%12O)[C@H](O)[C@H]%11O)nn%10)O[C@@H]9CO)nn8)cc7)nn6)[C@H](O)[C@H]5O)nn4)O[C@@H]3CO)[C@H](O)[C@@H](O)[C@H]2O)(C(=O)O)C[C@@H]1O [Compound 17],23 (12),23 (12),–,–,–
CC(=O)N[C@H]1[C@H](O[C@H]2[C@@H](O)[C@@H](CO)O[C@@H](O[C@H]3[C@H](O)[C@@H](O)[C@H](n4cc(-c5ccc(-c6cn(CCCC(=O)Nc7cccc(-c8cc(-c9cccc(NC(=O)CCCn%10cc(-c%11ccc(-c%12cn([C@@H]%13O[C@H](CO)[C@@H](O[C@@H]%14O[C@H](CO)[C@H](O)[C@H](O[C@@H]%15O[C@H](CO)[C@@H](O[C@@H]%16O[C@H](CO)[C@H](O)[C@H](O)[C@H]%16O)[C@H](O)[C@H]%15NC(C)=O)[C@H]%14O)[C@H](O)[C@H]%13O)nn%12)cc%11)nn%10)c9)cc(-c9cccc(NC(=O)CCCn%10cc(-c%11ccc(-c%12cn([C@@H]%13O[C@H](CO)[C@@H](O[C@@H]%14O[C@H](CO)[C@H](O)[C@H](O[C@@H]%15O[C@H](CO)[C@@H](O[C@@H]%16O[C@H](CO)[C@H](O)[C@H](O)[C@H]%16O)[C@H](O)[C@H]%15NC(C)=O)[C@H]%14O)[C@H](O)[C@H]%13O)nn%12)cc%11)nn%10)c9)c8)c7)nn6)cc5)nn4)O[C@@H]3CO)[C@@H]2O)O[C@H](CO)[C@@H](O[C@@H]2O[C@H](CO)[C@H](O)[C@H](O)[C@H]2O)[C@@H]1O [Compound 13],–,–,did not yield any detectable inhibition in the assay up to the 20 μM; also recorded: no inhib at 20 μM,–,–
C#CCO[C@@H]1O[C@H](CO)[C@@H](O[C@@H]2O[C@H](CO[C@]3(C(=O)O)C[C@H](O)[C@@H](NC(C)=O)[C@H]([C@H](O)[C@H](O)CO)O3)[C@H](O)[C@H](O)[C@H]2O)[C@H](O)[C@H]1NC(C)=O [Compound 7],1 (1),1 (1),–,–,–
CC(=O)N[C@H]1[C@H]([C@H](O)[C@H](O)CO)O[C@@](OC[C@H]2O[C@@H](O[C@H]3[C@H](O)[C@@H](O)[C@H](OCc4cn(CCCC(=O)Nc5cccc(-c6cc(-c7cccc(NC(=O)CCCn8cc(CO[C@@H]9O[C@H](CO)[C@@H](O[C@@H]%10O[C@H](CO[C@]%11(C(=O)O)C[C@H](O)[C@@H](NC(C)=O)[C@H]([C@H](O)[C@H](O)CO)O%11)[C@H](O)[C@H](O)[C@H]%10O)[C@H](O)[C@H]9O)nn8)c7)cc(-c7cccc(NC(=O)CCCn8cc(CO[C@@H]9O[C@H](CO)[C@@H](O[C@@H]%10O[C@H](CO[C@]%11(C(=O)O)C[C@H](O)[C@@H](NC(C)=O)[C@H]([C@H](O)[C@H](O)CO)O%11)[C@H](O)[C@H](O)[C@H]%10O)[C@H](O)[C@H]9O)nn8)c7)c6)c5)nn4)O[C@@H]3CO)[C@H](O)[C@@H](O)[C@H]2O)(C(=O)O)C[C@@H]1O [Compound 10],20 (7),20 (7),–,2,–
CCC(CC)O[C@@H]1C=C(C(=O)O)C[C@H](N)[C@H]1NC(C)=O [oseltamivir carboxylate],–,–,–,–,little effect
